Experimental data from patent US20250360134A1, “6-6 OR 5-6 FUSED BICYCLIC COMPOUNDS COMPRISING A PYRI(MI)DINE RING USEFUL IN THE|TREATMENT OF INFECTIOUS DISEASES” (INSTITUT NATIONAL DE LA SANTE ET DE LA RECHERCHE MEDICALE …, priority 2020, published 2025).
Where a name gives a salt, the structure may show the parent alone. Read-outs that look alike come from different tables or passages of the source.

What was measured:
SARS-CoV-2 = test: microbe, parasite or virus in culture; assay type: cell-based; details: Severe acute respiratory syndrome coronavirus 2; A549 cells expressing human ACE2, 72 hours after infection, RT-PCR of the N-gene; read-out: IC50 RTqPCR SARS-CoV-2
[1] = system: human duplex sequence FdxT; test: FRET-melting, FdxT; details: duplex control, K+ condition, 2 μM compound, 0.2 μM oligonucleotide
[2] = system: Plasmodium telomeric sequence FPf1T; test: FRET-melting, FPf1T; details: K+ condition, 2 μM compound, 0.2 μM oligonucleotide
[3] = system: T. brucei brucei AnTat 1.9; test: In vitro antitrypanosomal activity, Alamar Blue assay; assay type: cell-based, Trypanosoma brucei brucei; details: read-out: IC50 T. brucei brucei
Method: The effects of the tested compounds on the growth of T. brucei brucei were assessed using an Alamar Blue® assay described in B. Raz et al., Acta Trop. 1997, 68, 139. T. brucei brucei AnTat 1.9 (IMTA, Antwerpen, Belgium) was cultured in MEM with Earle's salts, supplemented according to the protocol disclosed in T. Baltz et al., EMBO J. 1985, 4, 1273, with the following modifications: 0.5 mM mercaptoethanol (Sigma-Aldrich), 1.5 mM 1-cysteine (Sigma-Aldrich), 0.05 mM bathocuproine sulfate (Sigma-Aldrich), and 20% heat-inactivated horse serum (Gibco, France) at 37° C. and 5% CO2. Samples were incubated at an average density of 2000 parasites/well in sterile 96-well plates (Fisher, France) with various concentrations of compounds dissolved in 0.9% NaCl. All doses were tested in duplicate. Appropriate controls treated with solvents 0.9% NaCl or DMSO or with suramin, pentamidine, eflornithine, and fexinidazole (reference drugs purchased from Sigma-Aldrich and Fluorochem, UK) were added to each set of experiments. After a 69-hour incubation at 37° C., 10 μl of the viability marker Alamar Blue (Fisher) was added to each well, and the plates were incubated for 5 hour. The plates were read in a PerkinElmer ENSPIRE (Germany) microplate reader using an excitation wavelength of 530 nm and an emission wavelength of 590 nm. The IC50 was defined as the concentration of drug necessary to inhibit by 50% the activity of T. brucei brucei compared to the control. IC50 values were calculated using a non-linear regression analysis of dose-response curves performed using GraphPad Prism software (USA). IC50 values were calculated from three independent experiments.

Plasmodium falciparum W2 = test: In vitro antiplasmodial activity, SYBR Green I, strain W2
Method: (§3) The in vitro antiplasmodial activities were tested over concentrations ranging from 39 to 40 μm against culture-adapted Plasmodium falciparum: reference strains 3D7 and W2. […] The parasites were cultivated in RPMI medium (Sigma-Aldrich, Lyon, France) supplemented with 0.5% Albumax I (Life Technologies Corporation, Paisley, UK), hypoxanthine (Sigma-Aldrich), and gentamicin (Sigma-Aldrich) with human erythrocytes and were incubated at 37° C. in a candle jar, as described in Desjardins R E et al., Antimicrob Agents Chemother, 1979; 16:710-18.
(§4) The P. falciparum drug susceptibility test was carried out in 96-well flat bottom sterile plates in a final volume of 250 μL. After a 48-hour incubation with the drugs, quantities of DNA in treated and control cultures of parasites in human erythrocytes were quantified using the SYBR Green I (Sigma-Aldrich) fluorescence-based method as described in Bennett T N et al, Antimicrob Agents Chemother, 2004; 48:1807-10. Briefly, after incubation, plates were frozen at −20° C. until use. Plates were then thawed for 2 hours at room temperature, and 100 μL of each homogenized culture was transferred to a well of a 96-well flat bottom sterile black plate (Nunc, Inc., Rochester, NY) that contained 100 μL of the SYBR Green I lysis buffer (2×SYBR Green, 20 mM Tris base pH 7.5, 5 mM EDTA, 0.008% w/v saponin, 0.08% w/v Triton X-100). […] Plates were incubated for 1 hour at room temperature and then read on a fluorescence plate reader (Tecan, Grödig, Austria) using excitation and emission wavelengths of 485 and 535 nm, respectively. Concentrations inhibiting 50% of the parasite's growth (half maximal inhibitory concentration or IC50 values) were then calculated from the obtained experimental results by non-linear regression analysis of data from dose-response curves, using TableCurve 2D version 5.0 software (Systat Software, San Jose, CA). IC50 values are reported as means calculated from three independent experiments, as described in H. Kaddouri et al., Antimicrob.

[4] = system: Plasmodium falciparum 3D7; test: In vitro antiplasmodial activity, SYBR Green I, strain 3D7
Method: as §3, §4

[5] = system: human telomeric sequence F21T; test: FRET-melting, F21T; details: K+ condition, 2 μM compound, 0.2 μM oligonucleotide
[6] = Cytotoxicity evaluation, MTT; assay type: cell-based, human; details: HepG2 cells (hepatocarcinoma-derived, ATCC HB-8065); human HepG2 cells, 72 hours, MTT
Method: (§1) The aim of this assay was to evaluate the impact of metabolic activation of the tested compounds on cell viability.
(§2) A cytotoxicity evaluation was performed using the method reported in Emami S A et al., Iran J Basic Med Sci 2012; 15:807-11 to determine the cytotoxic concentrations 50% (CC50) and using doxorubicin as a cytotoxic reference compound. These assays were performed in human HepG2 cells. HepG2 cells were purchased from ATCC (ref HB-8065). These cells are a commonly used human hepatocarcinoma-derived cell line that has characteristics similar to those of primary hepatocytes. These cells express many hepatocyte-specific metabolic enzymes, thus enabling the cytotoxicity of tested product metabolites to be evaluated. Briefly, cells in 100 μl of complete RPMI medium [RPMI supplemented with 10% FCS, 1% 1-glutamine (200 mM), penicillin (100 U/ml), and streptomycin (100 μg/ml)] were inoculated into each well of 96-well plates and incubated at 37° C. in a humidified chamber in 6% CO2. After 24 hours, 100 μl of medium with test compound at various concentrations dissolved in DMSO (final concentration less than 0.5% v/v) was added, and the plates were incubated for 72 hours at 37° C. Duplicate assays were performed for each sample. Each well was microscopically examined for precipitate formation before the medium was aspirated from the wells. After aspiration, 100 μl of MTT solution (0.5 mg/ml in medium without FCS) were then added to each well. Cells were incubated for 2 hours at 37° C. MTT solution was removed, and DMSO (100 μl) was added to dissolve the resulting blue formazan crystals. Plates were shaken vigorously (300 rpm) for 5 min. The absorbance was measured at 570 nm with 630 nm as reference wavelength in a BIO-TEK ELx808 Absorbance Microplate Reader. DMSO was used as blank and doxorubicin (Sigma-Aldrich) as positive control. Cell viability was calculated as percentage of control (cells incubated without compound).

[7] = system: Trypanosoma 9 and 11 chromosomic sequence FTrypBT; test: FRET-melting, FTrypBT; details: K+ condition, 2 μM compound, 0.2 μM oligonucleotide
[8] = system: Plasmodium telomeric sequence FPf8T; test: FRET-melting, FPf8T; details: K+ condition, 2 μM compound, 0.2 μM oligonucleotide
HepG2 cells = test: Cytotoxicity evaluation, MTT; assay type: cell-based, human
Method: as §1, §2

[9] = Plasmodium falciparum, W2, 48 h, read-out: IC50 Plasmodium falciparum W2, chloroquine-resistant strain W2, 48-hour incubation
[10] = Plasmodium falciparum, 3D7, 48 h, read-out: IC50 Plasmodium falciparum 3D7, chloroquine-sensitive strain 3D7, 48-hour incubation
[11] = Trypanosoma brucei, 69-hour incubation, Alamar Blue

Compound | IC50 (SARS-CoV-2) [nM] | FRET-melting values in K+ conditions at 2 μM ΔTm FdxT [1] [°C] | FRET-melting values in K+ conditions at 2 μM ΔTm FPf1T [2] [°C] | IC50 ([3]; Trypanosoma brucei, 69 h) [nM] | IC50 (Plasmodium falciparum W2; [9]) [nM] | IC50 [4, 10] [nM] | FRET-melting values in K+ conditions at 2 μM ΔTm F21T [5] [°C] | IC50 at 72 h [6] [nM] | FRET-melting values in K+ conditions at 2 μM ΔTm FtryBT [7] [°C] | FRET-melting values in K+ conditions at 2 μM ΔTm FPf8T [8] [°C] | IC50 [3, 11] [nM] | IC50 ([3]; 69-hour incubation, Alamar Blue) [nM] | IC50 (Plasmodium falciparum W2; read-out: IC50 Plasmodium falciparum W2, chloroquine-resistant strain W2, 48-hour incubation) [nM] | IC50 ([4]; read-out: IC50 Plasmodium falciparum 3D7, chloroquine-sensitive strain 3D7, 48-hour incubation) [nM] | IC50 (HepG2 cells) [nM]
CN(C)CCCNCc1ccc(-c2nc(-c3ccc(CNCCCN(C)C)cc3)c3ccn(-c4ccc(CNCCCN(C)C)cc4)c3n2)cc1 [Compound 13B, 2,4,7-Tri{4-[(3-dimethylaminopropyl)aminomethyl]phenyl}-7H-pyrrolo[2,3-d]pyrimidine oxalate] | 170 | 5.4 | 33.1 | 860 ± 70 | 10600 ± 690 | 2440 ± 1270 | 29.1 | 26700 | 30.7 | 34.6 |  |  |  |  | 
CN(C)CCCNCc1ccc(-c2nc(-c3ccc(CNCCCN(C)C)cc3)c3ccn(-c4ccccc4)c3n2)cc1 [Compound 1B, 2,4-bis{4-[(3-dimethylaminopropyl)aminomethyl]phenyl}-7-phenyl-7H-pyrrolo[2,3-d]pyrimidine oxalate] | 330 | 1.2 | 23.6 | 550 ± 70 | 2710 ± 140 | 2220 ± 120 | 22.8 | 1640 | 20.5 | 23.5 |  |  |  |  | 
CC(C)N(CCCCCNCc1ccc(-c2nc(-c3ccc(CNCCCCCN(C(C)C)C(C)C)cc3)c3ccn(-c4ccccc4)c3n2)cc1)C(C)C [Compound 34B, oxalate] | 170 |  |  |  | 770 ± 70 | 930 ± 150 |  |  |  |  |  |  |  |  | 
CN1CCN(CCCNCc2ccc(-c3nc(-c4ccc(CNCCCN5CCN(C)CC5)cc4)c4ccn(C)c4n3)cc2)CC1 [Compound 9B, 2,4-bis{4-[(3-(4-methylpiperazin-1-yl)propyl)aminomethyl]phenyl}-7-methyl-7H-pyrrolo[2,3-d]pyrimidine oxalate] |  | 0.0 | 10.1 | 1000 ± 100 | 130 ± 50 | 17800 ± 3490 | 10.4 | 39500 | 8.4 | 10.1 |  |  |  |  | 
CN(C)CCCCCNCc1ccc(-c2nc(-c3ccccc3)c3ccn(-c4ccc(CNCCCCCN(C)C)cc4)c3n2)cc1 [Compound 35B, oxalate] | 560 | 3.49 | 25.4 |  | 4740 ± 900 | 6760 ± 470 | 27.23 |  | 21.55 | 33.76 |  |  |  |  | 
CN(C)CCCNCc1ccc(-c2nc(-c3ccc(CNCCCN(C)C)cc3)c3ccsc3n2)cc1 [Compound 26B, 2,4-Bis{4-[(4-dimethylaminopropyl)aminomethyl]phenyl}thieno[2,3-d]pyrimidine oxalate] |  | 0.3 | 11.2 |  | 9950 ± 1470 | 4460 ± 350 | 14.1 | 2790 | 8.6 | 13.2 | 460 ± 40 |  |  |  | 
2-(3-Dimethylaminopropylamino)-4-{4-[(4-dimethylaminopropyl)aminomethyl]phenyl}-7-phenyl-7H-pyrrolo[2,3-d]pyrimidine oxalate [Compound 14B] |  | −0.7 |  |  |  |  |  |  |  |  |  | 890 ± 90 | 290 ± 100 | 1480 ± 290 | 13500
CN(C)CCCNCc1ccc(-c2nc(NCCCN(C)C)nc3ccsc23)cc1 [Compound 31B, 2-(3-Dimethylaminopropylamino)-4-{4-[(4-dimethylaminopropyl)aminomethyl]phenyl}thieno[3,2-d]pyrimidine oxalate] |  | −0.7 | 1.8 |  | 5690 ± 1210 | 40 ± 10 | 2.0 | > 60000 | 1.8 | 2.9 | 2580 ± 210 |  |  |  | 
CN(C)CCCNCc1ccc(-c2nc(-c3ccc(CNCCCN(C)C)cc3)c3ccn(C)c3n2)cc1 [Compound 8B, 2,4-bis{4-[(3-dimethylaminopropyl)aminomethyl]phenyl}-7-methyl-7H-pyrrolo[2,3-d]pyrimidine oxalate] |  | −0.2 | 10.3 | 550 ± 50 | 4460 ± 600 | 1950 ± 690 | 10.9 | 16400 | 9.4 | 10.6 |  |  |  |  | 
CCN(CC)CCCCNCc1ccc(-c2nc(-c3ccc(CNCCCCN(CC)CC)cc3)c3ccn(-c4ccccc4)c3n2)cc1 [Compound 33B, oxalate] | 550 |  |  |  | 700 ± 150 | 2470 ± 190 |  |  |  |  |  |  |  |  | 
